We go through seven molecules from article doi:10.1101/2021.12.13.472388v3 (biorxiv, 2022).

Experiment [1] addresses BRD4-BDI (Homo sapiens, UniProt O60885). The experiment in a line: HTRF peptide displacement. Particulars: 6 h, room temperature. It is filed as binding. On the technique in general: Time-resolved FRET reads energy transfer from a long-lived donor to a nearby acceptor.
In experiment [2] the target is T1, TRIM33 (Homo sapiens, UniProt Q9UPN9).
T1 sequence (Q9UPN9 882-1087 limits assumed): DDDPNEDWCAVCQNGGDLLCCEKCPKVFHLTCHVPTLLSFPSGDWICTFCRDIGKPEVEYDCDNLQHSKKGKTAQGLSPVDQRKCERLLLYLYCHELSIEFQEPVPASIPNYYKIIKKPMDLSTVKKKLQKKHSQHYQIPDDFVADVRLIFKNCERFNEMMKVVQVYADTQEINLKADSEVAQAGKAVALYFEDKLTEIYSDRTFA
The experiment in a line: BROMOscan competition binding. Particulars: single dose 1 μM; unreliable (may be per cent of control, direction unclear).

Experiment [3] relates to K-562. The experiment in a line: cells. Also on record: species or system MOLM-14, CCRF-CEM, NB4. The following applies: Homo sapiens, K562, 72 h, read-out: Cells viability EC50 K-562 (µM).
Experiment [4] deals with CECR2 (Homo sapiens, UniProt Q9BXF3). The experiment in a line: BROMOscan competition binding. The following applies: single dose 1 μM; unreliable (may be per cent of control, direction unclear).
Experiment [5] deals with NB4. The experiment in a line: cells. Also on record: species or system MOLM-14, CCRF-CEM, K-562. The following applies: Homo sapiens, NB-4, 72 h, read-out: Cells viability EC50 NB4 (µM).

With `CC(=O)N1CCc2c(sc3nc(SCC(=O)Nc4cc(Cl)ccc4C)n(Cc4ccco4)c(=O)c23)C1` [compound 1], the half-maximal inhibitory concentration (IC50) (in general, the concentration that inhibits the measured activity by half) in experiment [1] was 4 ± 0.5 µM.
The same measure, in the same setting: the same measure for `O=C1c2ccc(Oc3cccc(Oc4ccc5c(c4)C(=O)N(c4ccc(O)cc4)C5=O)c3)cc2C(=O)N1c1ccc(O)cc1` [compound 7]: 1.1 ± 0.1 µM; for `COc1cc(C(=O)C(=Cc2ccncc2)c2nc3ccccc3o2)cc(OC)c1OC` [compound 5]: 4.3 ± 0.2 µM.
Same read-out and setting: in the case of `CCc1cccc(C)c1NS(=O)(=O)c1cc(-c2c(C)noc2C)ccc1C` [compound 3] it was 9.3 ± 0.8 µM.
Take `CC(=O)N1CCc2c(sc3nc(SCC(=O)Nc4cccnc4C)n(Cc4ccco4)c(=O)c23)C1` [compound 34, 2-((7-Acetyl-3-(furan-2-ylmethyl)-4-oxo-3,4,5,6,7,8-hexahydropyrido[4’,3’:4,5]thieno[2,3-d]pyrimidin-2-yl)thio)-N-(2-methylpyridin-3-yl)acetamide]: the IC50 in experiment [1] amounted to 1.3 µM. Also, the % inhibition – broadly, the share of the control response that was lost under treatment – at 1 μM in experiment [2] came to 52%; in experiment [4], 54%. Moreover, the EC50 in experiment [3] and in experiment [5] was more than 25 µM throughout.
In turn, `Cc1ccc(-c2c(C)noc2C)cc1S(=O)(=O)Nc1cccc(C)c1C` [compound 2] yielded an IC50 in experiment [1] of 11 ± 0.9 µM.
Take `Cc1cc(F)ccc1NS(=O)(=O)c1cc(-c2c(C)noc2C)ccc1C` [compound 4]: the IC50 in experiment [1] amounted to 7.4 ± 0.5 µM.
